Data from patent US12139478B2, “Compounds, compositions and methods” (Denali Therapeutics Inc., priority 2017, dated 2024).
Where two headings read alike, the source gives them in different places.

Test system: ATF4 translation
Experiment: ATF4 Nano Luciferase reporter integrated stress response (ISR) assay in H4 ATF4-NLuc cells
Format: cell-based, human
Conditions: H4 ATF4-NLuc (clone 17) cells, compound 30 minutes, then sodium arsenite for 6 additional hours, luminescence readout
Text: Cellular stress leads to activation of the integrated stress response pathway through one of four eukaryotic initiation factor 2a kinases and halts global translation, while allowing for the translation of select transcripts like ATF4 (activating transcription factor 4) that are important for the response to cellular stress. During normal conditions, small open reading frames (ORFs) in the 5′ UTR of ATF4 occupy the ribosome and prevent translation of the coding sequence of ATF4. During stress conditions however, the ribosome scans past these upstream ORFs and preferentially begins translation at the coding sequence of ATF4. In this way, the translation, and thus protein level of ATF4 is a readout of ISR pathway activation. Thus, a fusion of the uORFs and the beginning of the coding sequence of ATF to a common cellular reporter like nano-luciferase allows for a sensitive and high-throughput readout of ISR pathway activity.
Compounds as provided herein were tested in the following assay. The ATF4 Nano Luciferase reporter was constructed by fusing the human full length 5′ untranslated region (5′-UTR) and a small portion of the coding sequence of the ATF4 gene upstream of the Nano Luciferase (NLuc) coding sequence lacking it's start codon. Specifically, nucleotides +1 through +364 (relative to the transcriptional start site) of ATF4 transcript variant 2 (NCBI NM_182810.2) flanked 5′ by EcoRI and 3′ by BamHI restriction enzyme sites were synthesized and cloned into the EcoRI/BamHI cloning sites of pLVX-EF1a-IRES-Puro lentivirus vector (Clontech). Lentiviral particles were produced with Lenti-X single shots (VSV-G, Clontech) according to the manufacturer's instructions and used to transduce a human H4 neuroglioma cell line (ATCC HTB-148). H4 cells were selected with 1.25 μg/mL Puromycin, and clonal cell lines generated by limiting dilution. We utilized this cell line to generate an integrated stress response (ISR) assay to evaluate the activity of ISR pathway inhibitors via luminescence readout. The H4 ATF4-NLuc (clone 17) cell line is plated at a density of […] in 96-well or 384-well respectively in DMEM+[…]. 24-hours later test compounds diluted in dimethyl sulfoxide (DMSO) are added for 30 minutes at 37° C., followed by ISR pathway activation with […] sodium arsenite aqueous solution for 6 additional hours. Nano Glo luciferase reagent (N1150, Promega) is added according to manufacturer instructions and the luminescence signal (corresponding to the level of ATF4 translation and thus ISR pathway activation) is read with a standard plate reader with luminescence detection capabilities. […] In the tables below, activity of the tested compounds is provided, and in Table 3 as follows: […]; ++=IC50 1-10 μM; +=IC50>10 μM.

[1] = Homo sapiens, 0.5 h, read-out: Activity
[2] = Homo sapiens, 0.5 h, read-out: Biological Example 1 (ATF4 translation, IC50 nM)

| IC50 [1] | IC50 [2] | IC50 (read-out: Activity) | Structure (SMILES) |
| --- | --- | --- | --- |
| < 1000 nM | 3.9 nM | – | O=C(COc1ccc(Cl)cc1)N[C@@H]1CC[C@@H](C(O)COC2CC(OC(F)(F)F)C2)OC1 (single isomer, unassigned) [Example 63] |
| – | – | < 1000 nM | O=C(COc1ccc(Cl)cc1)N[C@@H]1CC[C@@H](C(O)COC2CC(OC(F)(F)F)C2)OC1 (single isomer, unassigned) [Example 64] |
| < 1000 nM | 8.5 nM | – | O=C(N[C@@H]1CC[C@@H](c2nnc(C3CC(OC(F)(F)F)C3)o2)OC1)[C@H]1CCc2cc(F)ccc2O1 (single isomer, unassigned) [Example 65] |
| < 1000 nM | – | – | O=C(COc1ccc(Cl)c(F)c1)N[C@@H]1CC[C@@H](c2nnc(C3C[C@H]3COC(F)(F)F)o2)OC1 (single isomer, unassigned) [Example 69] |
| – | 8 nM | < 1000 nM | O=C(COc1ccc(Cl)c(F)c1)N[C@@H]1CC[C@@H](c2nnc(C3C[C@H]3COC(F)(F)F)o2)OC1 (single isomer, unassigned) [Example 70] |
| < 1000 nM | – | – | CC(O)(COC1CC(OC(F)(F)F)C1)[C@@H]1CC[C@@H](NC(=O)COc2ccc(Cl)cc2)CO1 (single isomer, unassigned) [Example 71] |
| – | – | < 1000 nM | CC(O)(COC1CC(OC(F)(F)F)C1)[C@@H]1CC[C@@H](NC(=O)COc2ccc(Cl)cc2)CO1 (single isomer, unassigned) [Example 72] |
| < 1000 nM | – | – | O=C(COc1ccc(Cl)c(F)c1)N[C@@H]1CC[C@@H](c2nnc([C@H]3C[C@@H](OC(F)(F)F)C3)o2)OC1 [Example 1, 2-(4-chloro-3-fluoro-phenoxy)-N-[(3R,6S)-6-[5-[3-cis-(trifluoromethoxy)cyclobutyl]-1,3,4-oxadiazol-2-yl]tetrahydropyran-3-yl]acetamide] |
| < 1000 nM | 2.7 nM | – | O=C(COc1ccc(Cl)cc1)N[C@@H]1CC[C@@H](c2nnc([C@H]3C[C@@H](OC(F)(F)F)C3)o2)OC1 [Example 2, 2-(4-chlorophenoxy)-N-[(3R,6S)-6-[5-[3-cis-(trifluoromethoxy)cyclobutyl]-1,3,4-oxadiazol-2-yl]tetrahydropyran-3-yl]acetamide] |
| 1000 to 10000 nM | – | – | O=C(N[C@@H]1CC[C@@H](c2nnc([C@H]3C[C@@H](OC(F)(F)F)C3)o2)OC1)[C@H]1C[C@@H]1COC(F)(F)F [Example 4, (1R,2R)—N-[(3R,6S)-6-[5-[3-cis-(trifluoromethoxy)cyclobutyl]-1,3,4-oxadiazol-2-yl]tetrahydropyran-3-yl]-2-(trifluoromethoxymethyl)cyclopropanecarboxamide] |
| < 1000 nM | – | – | O=C(COc1ccc(F)cc1)N[C@@H]1CC[C@@H](c2nnc(C3CC(OC(F)(F)F)C3)o2)OC1 (stereo partly drawn) [Example 20, 2-(4-fluorophenoxy)-N-[(3R,6S)-6-[5-[3-cis-(trifluoromethoxy)cyclobutyl]-1,3,4-oxadiazol-2-yl]tetrahydropyran-3-yl]acetamide] |
| < 1000 nM | 4 nM | – | O=C(COc1ccc(Cl)c(F)c1)NC12CCC(c3nnc([C@H]4C[C@@H](OC(F)(F)F)C4)o3)(CC1)OC2 [Example 21, 2-(4-chloro-3-fluoro-phenoxy)-N-[1-[5-[3-cis-(trifluoromethoxy)cyclobutyl]-1,3,4-oxadiazol-2-yl]-2-oxabicyclo[2.2.2]octan-4-yl]acetamide] |
| < 1000 nM | – | – | O=C(COc1ccc(F)cc1)NC12CCC(c3nnc([C@H]4C[C@@H](OC(F)(F)F)C4)o3)(CC1)OC2 [Example 22, 2-(4-fluorophenoxy)-N-[1-[5-[3-cis-(trifluoromethoxy)cyclobutyl]-1,3,4-oxadiazol-2-yl]-2-oxabicyclo[2.2.2]octan-4-yl]acetamide] |
| 1000 to 10000 nM | – | – | COC(=O)[C@@H]1CC[C@@H](NC(=O)COc2ccc(Cl)cc2)CO1 [Example 23, Methyl (2S,5R)-5-[[2-(4-chlorophenoxy)acetyl]amino]tetrahydropyran-2-carboxylate] |
| < 1000 nM | 10.5 nM | – | O=C(COc1ccc(F)c(F)c1)N[C@@H]1CC[C@@H](c2nnc([C@H]3C[C@@H](OC(F)(F)F)C3)o2)OC1 [Example 24, 2-(3,4-difluorophenoxy)-N-((3R,6S)-6-(5-(3-cis-(trifluoromethoxy)cyclobutyl)-1,3,4-oxadiazol-2-yl)tetrahydro-2H-pyran-3-yl)acetamide] |
| < 1000 nM | – | – | O=C(COc1ccc(F)c(F)c1)NC12CCC(c3nnc([C@H]4C[C@@H](OC(F)(F)F)C4)o3)(CC1)OC2 [Example 25, 2-(3,4-difluorophenoxy)-N-[1-[5-[3-cis-(trifluoromethoxy)cyclobutyl]-1,3,4-oxadiazol-2-yl]-2-oxabicyclo[2.2.2]octan-4-yl]acetamide] |
| < 1000 nM | 2.2 nM | – | O=C(COc1ccc(Cl)cc1)NC12CCC(c3nnc([C@H]4C[C@@H](OC(F)(F)F)C4)o3)(CC1)OC2 [Example 26, 2-(4-chlorophenoxy)-N-[1-[5-[3-cis-(trifluoromethoxy)cyclobutyl]-1,3,4-oxadiazol-2-yl]-2-oxabicyclo[2.2.2]octan-4-yl]acetamide] |
| < 1000 nM | – | – | O=C(COc1ccccc1)N[C@@H]1CC[C@@H](c2nnc([C@H]3C[C@@H](OC(F)(F)F)C3)o2)OC1 [Example 27, 2-phenoxy-N-[(3R,6S)-6-[5-[3-cis-(trifluoromethoxy)cyclobutyl]-1,3,4-oxadiazol-2-yl]tetrahydropyran-3-yl]acetamide] |

| Structure (SMILES) | IC50 [1] | IC50 [2] | IC50 (read-out: Activity) |
| --- | --- | --- | --- |
| O=C(COC1CC(OC(F)(F)F)C1)N[C@@H]1CC[C@@H](c2nnc([C@H]3C[C@@H](OC(F)(F)F)C3)o2)OC1 (stereo partly drawn) [Example 3, 2-[3-cis-(trifluoromethoxy)cyclobutoxy]-N-[(3R,6S)-6-[5-[(cis)-3-(trifluoromethoxy)cyclobutyl]-1,3,4-oxadiazol-2-yl]tetrahydropyran-3-yl]acetamide] | < 1000 nM | – | – |
| O=C(COC1CC(OC(F)(F)F)C1)NC12CCC(c3nnc([C@H]4C[C@@H](OC(F)(F)F)C4)o3)(CC1)OC2 (stereo partly drawn) [Example 14, 2-[3-cis-(trifluoromethoxy)cyclobutoxy]-N-[1-[5-[3-cis-(trifluoromethoxy)cyclobutyl]-1,3,4-oxadiazol-2-yl]-2-oxabicyclo[2.2.2]octan-4-yl]acetamide] | < 1000 nM | – | – |
| O=C(COC1CC(OC(F)(F)F)C1)N[C@@H]1CC[C@@H](c2cnn([C@H]3C[C@@H](OC(F)(F)F)C3)n2)OC1 (stereo partly drawn) [Example 17, 2-[3-cis-(trifluoromethoxy)cyclobutoxy]-N-[(3R,6S)-6-[2-[3-cis-(trifluoromethoxy)cyclobutyl]triazol-4-yl]tetrahydropyran-3-yl]acetamide] | < 1000 nM | – | – |
| O=C(COC1CC(OC(F)(F)F)C1)NC1CC[C@@H](c2cn([C@H]3C[C@@H](OC(F)(F)F)C3)nn2)OC1 (stereo partly drawn) [Example 18, 2-[3-cis-(trifluoromethoxy)cyclobutoxy]-N-[(3R,6S)-6-[1-[3-cis-(trifluoromethoxy)cyclobutyl]triazol-4-yl]tetrahydropyran-3-yl]acetamide] | < 1000 nM | – | – |
| O=C(COC1CC(OC(F)(F)F)C1)N[C@@H]1CC[C@@H](c2nnc(-c3ccc(Cl)c(F)c3)o2)OC1 (stereo partly drawn) [Example 19, N-[(3R,6S)-6-[5-(4-chloro-3-fluoro-phenyl)-1,3,4-oxadiazol-2-yl]tetrahydropyran-3-yl]-2-[3-cis-(trifluoromethoxy)cyclobutoxy]acetamide] | < 1000 nM | 29.5 nM | – |
